Laboratory results from ChEMBL document CHEMBL1127906, “Design and synthesis of novel muscarinic agonists containing the 1,2,4-triazine ring as an ester bioisostere” (Bioorg Med Chem Lett, 1994).

Legend:
[1] = biological target: Muscarinic acetylcholine receptor; assay: Ability to inhibit [3H]quinuclidinyl benzilate(QNB) binding in rat cerebral cortex, activity expressed as IC50.; type: tissue-based
[2] = biological target: Muscarinic acetylcholine receptor (Rattus norvegicus) (UniProt P08482+P08483+P08485+P08911+P10980); assay: Ratio of IC50 values for inhibition of QNB and OXO-M was measured for efficacy of the compound
[3] = biological target: Muscarinic acetylcholine receptor; assay: Ability to inhibit [3H]oxotremorine-M (OXO-M) binding in rat cerebral cortex; type: tissue-based

Molecule `CSc1nncc([C@H]2CN3CC[C@H]2C3)n1` has an IC50 [1] of 1300 nM, a Ratio [2] of 4.5 and an IC50 [3] of 290 nM.

`Cc1noc([C@H]2CN3CC[C@H]2C3)n1` gave an IC50 [1] of 1000 nM, a Ratio [2] of 360 and an IC50 [3] of 2.8 nM.

For `Nc1nncc([C@H]2CN3CC[C@H]2C3)n1`, the IC50 [1] was 990 nM, the Ratio [2] was 460 and the IC50 [3] was 2.1 nM.

With `c1nncc([C@H]2CN3CC[C@H]2C3)n1` the IC50 [1] was 1400 nM, the Ratio [2] was 370 and the IC50 [3] was 3.8 nM.

Work on `Cc1nncc([C@H]2CN3CC[C@H]2C3)n1` yielded an IC50 [1] of 410 nM, a Ratio [2] of 105 and an IC50 [3] of 3.9 nM.

`COc1nncc([C@H]2CN3CC[C@H]2C3)n1` was tested, and the IC50 [1] was 2400 nM, the Ratio [2] was 17 and the IC50 [3] was 140 nM.

`Cc1nncc(C23CCCN(CC2)C3)n1` (stereo not given) gave an IC50 [1] of 1800 nM, a Ratio [2] of 55 and an IC50 [3] of 33 nM.

`Cc1nncc(C23CCN(CC2)C3)n1` gave an IC50 [1] of 4100 nM, a Ratio [2] of 59 and an IC50 [3] of 70 nM.

In the case of `Cc1nncc(C2CN3CCC2CC3)n1` (stereo not given), the IC50 [1] is reported as 225 nM, the Ratio [2] is reported as 56 and the IC50 [3] is reported as 4 nM.

Work on `CCc1nncc([C@H]2CN3CC[C@H]2C3)n1` yielded an IC50 [1] of 410 nM, a Ratio [2] of 9 and an IC50 [3] of 46 nM.
